Results reported in ChEMBL document CHEMBL1128542, “Synthesis and antiviral activity of benzyl-substituted imidazo [1,5-a]-1,3,5-triazine (5,8-diaza-7,9-dideazapurine) derivatives” (J Med Chem, 1995).

What was measured:
CCRF-CEM = assay: Cytotoxic concentration required to inhibit CEM cell proliferation by 50%.; assay type: functional; settings: Homo sapiens
[1] = Minimum toxic concentration required to cause a microscopically detectable alteration of normal HeLa cell morphology; assay type: toxicity, cell-based; settings: human, HeLa cells; read-out: MTC
HeLa = assay: Inhibitory concentration against respiratory syncytial virus in HeLa cells; assay type: functional, cell-based; settings: Homo sapiens
MDCK [2] = assay: Inhibitory concentration against influenza virus A in MDCK cells; assay type: functional, cell-based; settings: Canis lupus familiaris
MDCK [3] = assay: Inhibitory concentration against influenza virus B in MDCK cells; assay type: functional, cell-based; settings: Canis lupus familiaris
[4] = Minimum toxic concentration required to cause a microscopically detectable alteration of normal MDCK cell morphology; assay type: toxicity, cell-based, Canis lupus familiaris; settings: dog, MDCK cells; read-out: MTC
[5] = Minimum toxic concentration required to cause a microscopically detectable alteration of normal vero cell morphology; assay type: toxicity, cell-based; settings: chlorocebus sabaeus, Vero cells; read-out: MTC
Vero = assay: Inhibitory concentration against parainfluenza-3 virus in vero cells; assay type: functional, cell-based; settings: Chlorocebus sabaeus
[6] = system: Human immunodeficiency virus 1; assay: Inhibitory concentration against HIV-1 replication; assay type: functional, organism-based
[7] = system: Human immunodeficiency virus 2; assay: Inhibitory concentration against HIV-2 replication; assay type: functional, organism-based

CSc1ncnc2c(Cc3ccc(C)cc3)ncn12
CC50 (CCRF-CEM): 389 µM
MCC [1]: 74 µM
IC50 (HeLa): 22.2 µM
IC50 (MDCK [2]): 14.8 µM
IC50 (MDCK [3]): 74 µM
MCC [4]: 74 µM
MCC [5]: > 370 µM
IC50 (Vero): > 148 µM

Sc1ncnc2c(Cc3ccccc3)ncn12
CC50 (CCRF-CEM): 35.1 µM
IC50 [6]: 20.6 µM
IC50 [7]: 17.7 µM
MCC [1]: 16.5 µM
IC50 (HeLa): 3.3 µM
IC50 (MDCK [2]): 4.9 µM
IC50 (MDCK [3]): 3.3 µM
MCC [4]: 16.5 µM
MCC [5]: 24.7 µM
IC50 (Vero): 33 µM

Cc1ccc(Cc2ncn3c(=O)[nH]c(=S)[nH]c23)cc1
CC50 (CCRF-CEM): > 735 µM
MCC [1]: > 735 µM
IC50 (HeLa): 257 µM
IC50 (MDCK [2]): 54.4 µM
IC50 (MDCK [3]): > 551 µM
MCC [4]: > 735 µM
MCC [5]: > 735 µM
IC50 (Vero): > 735 µM

Cc1nc(C)n2c1NC(SCc1ccccc1)NC2=O (centres undefined)
CC50 (CCRF-CEM): 266 µM
MCC [1]: > 524 µM
IC50 (HeLa): 20.9 µM
IC50 (MDCK [2]): 69.9 µM
IC50 (MDCK [3]): 699 µM
MCC [4]: > 699 µM
MCC [5]: > 350 µM
IC50 (Vero): > 140 µM

O=c1[nH]c(=S)[nH]c2c(Cc3ccccc3)ncn12
CC50 (CCRF-CEM): 430 µM
MCC [1]: > 775 µM
IC50 (HeLa): > 775 µM
IC50 (MDCK [2]): 54.2 µM
IC50 (MDCK [3]): > 581 µM
MCC [4]: > 775 µM
MCC [5]: 581 µM
IC50 (Vero): > 775 µM

Cc1ncn2c1NC=NC2N (centres undefined)
CC50 (CCRF-CEM): 746 µM
MCC [1]: > 1340 µM
IC50 (HeLa): > 1340 µM
IC50 (MDCK [2]): > 1340 µM
IC50 (MDCK [3]): > 1340 µM
MCC [4]: > 1340 µM
MCC [5]: 671 µM
IC50 (Vero): > 671 µM

O=c1[nH]c(=S)[nH]c2c(CCCCCOCc3ccccc3)ncn12
CC50 (CCRF-CEM): 259 µM
MCC [1]: 87.2 µM
IC50 (HeLa): 23.2 µM
IC50 (MDCK [2]): 174 µM
IC50 (MDCK [3]): > 291 µM
MCC [4]: 291 µM

CSC1NC(=O)n2cnc(Cc3ccc(C)cc3)c2N1 (centres undefined)
CC50 (CCRF-CEM): 75.3 µM
MCC [1]: 20.3 µM
IC50 (HeLa): 4 µM
IC50 (MDCK [2]): 27.1 µM
IC50 (MDCK [3]): 67.7 µM
MCC [4]: 67.7 µM
MCC [5]: > 339 µM
IC50 (Vero): 136 µM

Cc1ccc(CSC2NC(=O)n3cnc(CCCCCOCc4ccccc4)c3N2)cc1 (centres undefined)
CC50 (CCRF-CEM): 343 µM
MCC [1]: 44.6 µM
IC50 (HeLa): 2.6 µM
IC50 (MDCK [2]): 5.3 µM
IC50 (MDCK [3]): 223 µM
MCC [4]: 223 µM
MCC [5]: > 89.2 µM
IC50 (Vero): > 22.3 µM

CN(C)c1ncnc2c(Cc3ccccc3)ncn12
CC50 (CCRF-CEM): > 790 µM
MCC [1]: > 790 µM
IC50 (HeLa): 395 µM
IC50 (MDCK [2]): > 790 µM
IC50 (MDCK [3]): > 790 µM
MCC [4]: > 790 µM
MCC [5]: > 790 µM
IC50 (Vero): > 790 µM

CSC1NC(=O)n2cnc(CCCCCOCc3ccccc3)c2N1 (centres undefined)
CC50 (CCRF-CEM): > 120 µM
MCC [1]: 11.1 µM
IC50 (HeLa): 2.2 µM
IC50 (MDCK [2]): 11.1 µM
IC50 (MDCK [3]): 55.8 µM
MCC [4]: 55.8 µM
MCC [5]: > 112 µM
IC50 (Vero): > 27.9 µM

Oc1ncnc2c(Cc3ccccc3)ncn12
CC50 (CCRF-CEM): 633 µM
MCC [1]: > 885 µM
IC50 (HeLa): 664 µM
IC50 (MDCK [2]): > 885 µM
IC50 (MDCK [3]): > 885 µM
MCC [4]: > 885 µM
MCC [5]: > 885 µM
IC50 (Vero): > 885 µM

Cc1ncn2c(S)ncnc12
CC50 (CCRF-CEM): 789 µM
MCC [1]: 602 µM
IC50 (HeLa): > 602 µM
IC50 (MDCK [2]): 181 µM
IC50 (MDCK [3]): 241 µM
MCC [4]: 602 µM
MCC [5]: 602 µM
IC50 (Vero): > 602 µM

CSC1N=CNc2c(C)ncn21 (centres undefined)
CC50 (CCRF-CEM): 176 µM
MCC [1]: 556 µM
IC50 (HeLa): 111 µM
IC50 (MDCK [2]): 22.2 µM
IC50 (MDCK [3]): 22.2 µM
MCC [4]: 111 µM
MCC [5]: 111 µM
IC50 (Vero): > 222 µM

Cc1nc(Cc2ccccc2)c2ncnc(O)n12
CC50 (CCRF-CEM): 262 µM
MCC [1]: 417 µM
IC50 (HeLa): > 417 µM
IC50 (MDCK [2]): 625 µM
IC50 (MDCK [3]): > 833 µM
MCC [4]: > 833 µM
MCC [5]: 417 µM
IC50 (Vero): > 417 µM

CSC1N=CNc2c(C)nc(C)n21 (centres undefined)
CC50 (CCRF-CEM): 440 µM
MCC [1]: 515 µM
IC50 (HeLa): > 515 µM
IC50 (MDCK [2]): 103 µM
IC50 (MDCK [3]): 103 µM
MCC [4]: 515 µM
MCC [5]: 515 µM
IC50 (Vero): > 515 µM

Cc1ncn2c(=O)[nH]c(=S)[nH]c12
CC50 (CCRF-CEM): 786 µM
MCC [1]: 549 µM
IC50 (HeLa): > 550 µM
IC50 (MDCK [2]): > 1100 µM
IC50 (MDCK [3]): > 1100 µM
MCC [4]: > 1100 µM
MCC [5]: 1100 µM
IC50 (Vero): > 1100 µM

Cc1ccc(Cc2ncn3c(O)ncnc23)cc1
CC50 (CCRF-CEM): > 833 µM
MCC [1]: > 833 µM
IC50 (HeLa): > 833 µM
IC50 (MDCK [2]): > 833 µM
IC50 (MDCK [3]): > 833 µM
MCC [4]: > 833 µM
MCC [5]: 625 µM
IC50 (Vero): > 833 µM

Cc1ccc(Cc2ncn3c(N(C)C)ncnc23)cc1
CC50 (CCRF-CEM): 412 µM
MCC [1]: > 749 µM
IC50 (HeLa): > 749 µM
IC50 (MDCK [2]): > 749 µM
IC50 (MDCK [3]): > 749 µM
MCC [4]: > 749 µM
MCC [5]: 374 µM
IC50 (Vero): > 374 µM

Cc1nc(C)n2c1NC=NC2N (centres undefined)
CC50 (CCRF-CEM): 115 µM
MCC [1]: > 1100 µM
IC50 (HeLa): > 1100 µM
IC50 (MDCK [2]): > 1100 µM
IC50 (MDCK [3]): > 1100 µM
MCC [4]: > 1100 µM
MCC [5]: > 1100 µM
IC50 (Vero): > 1100 µM

Cc1ccc(CSC2NC(=O)n3cnc(Cc4ccc(C)cc4)c3N2)cc1 (centres undefined)
CC50 (CCRF-CEM): 44.6 µM
MCC [1]: 10.3 µM
IC50 (HeLa): 1.4 µM
IC50 (MDCK [2]): 4.1 µM
IC50 (MDCK [3]): 51.9 µM
MCC [4]: 260 µM
MCC [5]: > 260 µM
IC50 (Vero): > 104 µM

Cc1ccc(CSC2NC(=O)n3c(C)nc(C)c3N2)cc1 (centres undefined)
CC50 (CCRF-CEM): 88.8 µM
MCC [1]: 328 µM
IC50 (HeLa): 15.7 µM
IC50 (MDCK [2]): 65.6 µM
IC50 (MDCK [3]): > 328 µM
MCC [4]: 328 µM
MCC [5]: 328 µM
IC50 (Vero): > 131 µM

NC(=O)c1ncn([C@@H]2O[C@H](CO)[C@@H](O)[C@H]2O)n1 [RIBAVIRIN]
MCC [1]: > 820 µM
IC50 (HeLa): 11.4 µM
IC50 (MDCK [2]): 4.9 µM
MCC [4]: > 820 µM
MCC [5]: > 1640 µM
IC50 (Vero): 287 µM

Cc1ccc(CSc2ncnc3c(Cc4ccc(C)cc4)ncn23)cc1
CC50 (CCRF-CEM): > 111 µM
MCC [1]: 278 µM
IC50 (HeLa): > 278 µM
IC50 (MDCK [2]): > 278 µM
IC50 (MDCK [3]): > 278 µM
MCC [4]: 278 µM
MCC [5]: 278 µM
IC50 (Vero): > 278 µM

Cc1nc(C)n2c(=O)[nH]c(=S)[nH]c12
CC50 (CCRF-CEM): 526 µM
MCC [1]: 510 µM
IC50 (HeLa): > 510 µM
IC50 (MDCK [2]): 510 µM
IC50 (MDCK [3]): > 1020 µM
MCC [4]: > 1020 µM
MCC [5]: 1020 µM
IC50 (Vero): > 1020 µM

Cc1ccc(Cc2ncn3c(S)ncnc23)cc1
CC50 (CCRF-CEM): 32.8 µM
MCC [1]: 6.2 µM
IC50 (HeLa): 0.6 µM
IC50 (MDCK [2]): 2.7 µM
IC50 (MDCK [3]): 0.6 µM
MCC [4]: 3.1 µM
MCC [5]: 4.6 µM
IC50 (Vero): 6.2 µM

NC12CC3CC(CC(C3)C1)C2 [AMANTADINE]
MCC [1]: 661 µM
IC50 (HeLa): > 661 µM
IC50 (MDCK [2]): 661 µM
IC50 (MDCK [3]): > 1320 µM
MCC [4]: > 661 µM

Cc1nc(C)n2c(S)ncnc12
CC50 (CCRF-CEM): > 694 µM
MCC [1]: 556 µM
IC50 (HeLa): > 556 µM
IC50 (MDCK [2]): 222 µM
IC50 (MDCK [3]): 833 µM
MCC [4]: > 1110 µM
MCC [5]: 556 µM
IC50 (Vero): > 556 µM
